The record followed here is US20050244490A1, “Dosing methods for beta-D-2',3'-dideoxy-2',3'-didehydro-5-fluorocytidine antiviral therapy” (priority 2003, published 2005).

Data set [1] concerns the target T1, DNA Pol γ (Homo sapiens, UniProt P54098).
T1 sequence (P54098 1-1239): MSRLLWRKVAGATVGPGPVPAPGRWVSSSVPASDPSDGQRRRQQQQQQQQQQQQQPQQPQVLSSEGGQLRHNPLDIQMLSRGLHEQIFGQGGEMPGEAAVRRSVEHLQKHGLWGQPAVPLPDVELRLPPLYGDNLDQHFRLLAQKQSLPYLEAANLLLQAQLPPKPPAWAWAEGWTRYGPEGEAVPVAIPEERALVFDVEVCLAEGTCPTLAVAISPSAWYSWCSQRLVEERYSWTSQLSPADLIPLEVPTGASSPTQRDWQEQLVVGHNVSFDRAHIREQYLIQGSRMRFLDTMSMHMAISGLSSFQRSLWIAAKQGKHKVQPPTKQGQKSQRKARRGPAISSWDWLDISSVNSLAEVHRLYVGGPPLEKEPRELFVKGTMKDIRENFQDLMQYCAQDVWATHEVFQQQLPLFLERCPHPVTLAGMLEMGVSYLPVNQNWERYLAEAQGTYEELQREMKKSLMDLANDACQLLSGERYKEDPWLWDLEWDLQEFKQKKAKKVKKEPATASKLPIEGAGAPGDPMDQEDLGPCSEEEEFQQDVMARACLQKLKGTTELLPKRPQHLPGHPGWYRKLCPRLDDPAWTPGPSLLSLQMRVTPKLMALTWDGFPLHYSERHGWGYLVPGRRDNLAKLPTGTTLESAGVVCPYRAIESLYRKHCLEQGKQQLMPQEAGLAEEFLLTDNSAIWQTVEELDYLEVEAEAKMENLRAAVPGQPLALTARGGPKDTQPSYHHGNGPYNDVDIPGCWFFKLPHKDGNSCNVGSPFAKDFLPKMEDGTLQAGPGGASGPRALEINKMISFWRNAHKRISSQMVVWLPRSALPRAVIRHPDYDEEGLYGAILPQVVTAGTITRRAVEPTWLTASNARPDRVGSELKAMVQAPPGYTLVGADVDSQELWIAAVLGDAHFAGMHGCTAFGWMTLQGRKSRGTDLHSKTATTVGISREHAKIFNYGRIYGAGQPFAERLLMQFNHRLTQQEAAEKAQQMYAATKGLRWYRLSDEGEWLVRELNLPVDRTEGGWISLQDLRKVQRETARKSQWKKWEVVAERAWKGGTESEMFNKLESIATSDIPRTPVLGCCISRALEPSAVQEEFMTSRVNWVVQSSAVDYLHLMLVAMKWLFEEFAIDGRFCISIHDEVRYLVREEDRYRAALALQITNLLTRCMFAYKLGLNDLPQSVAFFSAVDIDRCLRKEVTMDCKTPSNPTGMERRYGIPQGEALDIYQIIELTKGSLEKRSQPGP
As to the kind of experiment: Inhibition of pure DNA polymerase γ by nucleoside triphosphates. Format: biochemical. The following applies: tritiated dCTP incorporation. The protocol: (§1) Triphosphates of nucleosides were tested against pure polymerases using tritiated dCTP incorporation.

The target of data set [2] is M184V mutant RT (Human immunodeficiency virus type 1 group M subtype B, UniProt P04585, M771V). Description: biochemical. To be noted: read-out: Ki M184V. Format: biochemical, HIV-1.
The target in data set [3] is T2, HIV RT (Human immunodeficiency virus type 1 group M subtype B, UniProt P04585).
T2 construct: purified HIV-1 reverse transcriptase (RT)
As to the kind of experiment: Inhibition of purified HIV-1 reverse transcriptase by nucleoside triphosphates (tritiated dCTP incorporation). Format: biochemical. How it is done:
An assay was performed to determine the ability of β-D-D4FC-triphosphate to terminate polymerization catalyzed by purified HIV-1 reverse transcriptase (RT). […] The target concentration is that concentration where most mutant variants tested are suppressed by 90% or more. The concentration of 5 μM is the target plasma concentration as most, mutant variants tested were suppressed ≧90% in vitro.
as §1

The target in data set [4] is DNA Pol β (Homo sapiens, UniProt P06746). Description: Inhibition of pure DNA polymerase β by nucleoside triphosphates. The data set is classed as biochemical. The following applies: tritiated dCTP incorporation. The protocol: as §1
The target in data set [5] is T3, wild type HIV-RT (Human immunodeficiency virus type 1 group M subtype B, UniProt P04585).
T3 construct: The Ki value for β-D-D4FC-TP for wild type HIV-RT
As to the kind of experiment: Ki / Km for wild type HIV-RT. The data set is classed as biochemical, HIV-1.

Data set [6] is described as follows: clinical. The following applies: in vivo.
For data set [7] the following is noted: human, in vivo.
The test system of data set [8] is acutely HIV-1 infected human PBM cells. Description: Median effect / combination index study with Racivir. Format: cell-based. The following applies: Human immunodeficiency virus 1, PBMC, 120 h, Day 5, assays (1), (2), (3); for EC90: read-out: EC90.
For data set [9], the system named is AZT/3TC-resistant HIV-1 recombinant viruses. Description: microbe, parasite or virus in culture. Format: cell-based. The following applies: Human immunodeficiency virus 1, read-out: Average IC90 for AZT/3TC-R virus. How it is done: A panel of 22 viruses was constructed in the HXB2 background using the Protease and RT sequences from clinical isolates to determine Virco Profiling against recombinant clinical isolates (see FIGS. 7a and 7b). Viruses contained 2 to 17 mutations in RT frequently associated with nucleoside resistance, including: M184V, M41L, D67N, T215Y. IC50 values were determined using a high through-put reporter virus assay.

Data set [10] can be described thus: Comparison to other nucleosides: plasma pharmacokinetics.
The conditions of data set [11]: pbmc.
Data set [12] has as its system HIV viral load. Description: Viral load decline on repeated dosing, β-D-D4FC and competing nucleosides. The data set is classed as in vivo. The following applies: 200 to 600 mg QD, duration of dosing 14; not monotherapy, in combination with EFV & D4T.
Data set [13] in a line: Intracellular phosphorylation and triphosphate half-life in PBMCs.
[14] abbreviates: pure polymerase, tritiated dCTP incorporation, read-out: IC50.

Molecules are shown by their SMILES. Like-named read-outs stand apart in the source and are kept apart here.

For `Nc1ccn([C@@H]2CS[C@H](COP(=O)(O)OP(=O)(O)OP(=O)(O)O)O2)c(=O)n1` [3TC-TP], the half-inhibitory concentration (IC50) (commonly the concentration needed to halve the response being measured) worked out at 43.1 µM in data set [1], 570 nM in data set [3] (setting [14]) and 10.3 µM in data set [4]. In addition, the inhibition constant (Ki) (as a rule, the dissociation constant of the complex between target and ligand, obtained from inhibition or displacement) was found to be 85 µM in data set [2] and 950 nM in [5] (read-out: Ki WT).
`O=c1[nH]cnc2c1ncn2[C@H]1CC[C@@H](CO)O1` [DDI, 2′,3′-dideoxyinosine]: in [6], the highest concentration (Cmax) (commonly the highest concentration seen after dosing) stood at 4.2 µM. In addition, the “Intracellular [Nuc-PPP] in patients” value in data set [7] was less than 0.5 µM. Further, in data set [8] (read-out: EC50), the EC50 – broadly, the concentration at which the effect is half-maximal – is 380 nM. For the same molecule, in data set [8], the EC90 (commonly the concentration needed for an effect of 90%) was found to be 2200 nM. Moreover, the IC90 in data set [9] was determined as 12.6 µM. Besides, the half-life (commonly the time in which the quantity being followed falls by half) in data set [10] was 90 min. In addition, the Intracellular half life in [11] is 25 to 40 h. The molecule further came in with an inhibition constant Ki in data set [5] of 80 to 8000 nM.
Consider `Nc1nc(=O)n(C2CSC(CO)O2)cc1F` (stereo not shown) [Racivir, reference compound], for which the concentration for an effect of 90% (EC90) in data set [8] is 170 nM. The “Viral Load Decline (log)” value in [12] is recorded as −2.02 to −2.43 log.
On to `Nc1nc(=O)n([C@H]2C=C[C@@H](COP(=O)(O)OP(=O)(O)OP(=O)(O)O)O2)cc1F` [β-D-D4FC-TP], for which the IC50 in data set [1] worked out at 0.74 µM; in data set [3] (setting [14]) it was 140 nM; in [3] (read-out: IC50, wild type purified RT), 67 ± 40 nM; in [4] it was 1.2 µM. Besides, in data set [13], the Intracellular half life lay within 13 to 17 h. Besides, the intracellular half-life in data set [13] fell in the range of 13 to 17 h. The “extracellular concentration at which intracellular conversion to β-D-D4FC-TP plateaus” value in data set [13] (PHA-stimulated PBMCs) was approximately 10 µM. Further, in data set [13] (in 8-10 hours), the “accumulation, % of parent” value is listed as approximately 10%. The Ki in [2] was found to be 0.3 µM; in [5] (read-out: Ki WT), 100 nM.
